Laboratory results reported in ChEMBL document CHEMBL1145242, “EB1627: a soluble prodrug of the potent anticancer cyanoguanidine CHS828” (Bioorg Med Chem Lett, 2005).
Converted amounts (≈) assume the structure as drawn.

Experiments:
[1] = Half life value in human serum; type: ADME, cell-free
[2] = Inhibition of NYH Cell line; type: functional, cell-based; conditions: Homo sapiens
[3] = Solubility at pH-5.5; type: physicochemical
[4] = Solubility at pH-7.4; type: physicochemical
[5] = Half life value at pH-7.4; type: ADME

SMILES | half-life [1] [min] | IC50 [2] [nM] | solubility [3] [mg/mL] | solubility [4] [mg/mL] | half-life [5] [min]
Cl.N#CN/C(=N\CCCCCCOc1ccc(Cl)cc1)Nc1cc[n+](COC(=O)OCCCCCCCCCN)cc1.[Cl-] | 15 | 0.398 | > 1.2 | 0.038 | > 240
N#CN=C(NCCCCCCOc1ccc(Cl)cc1)Nc1ccncc1 [CHS-828] |  | 0.501 | 0.002 (≈ 5.38 µM) | 0.0005 (≈ 1.34 µM) | 
COCCOCCOCCOCCOC(=O)OC[n+]1ccc(N/C(=N/C#N)NCCCCCCOc2ccc(Cl)cc2)cc1.[Cl-] [TEGLARINAD CHLORIDE] | 25 | 0.794 | > 1.2 | 0.12 | > 240

Other lines, results leading:

half-life [1] [min] | IC50 [2] [nM] | solubility [3] [mg/mL] | solubility [4] [mg/mL] | half-life [5] [min] | SMILES
27 | 0.631 | 0.034 | 0.014 | > 240 | COCCOCCOC(=O)OC[n+]1ccc(N/C(=N/CCCCCCOc2ccc(Cl)cc2)NC#N)cc1.[Cl-]
 | 5.01 |  |  |  | CC(C)[C@@H](N)C(=O)OC[n+]1ccc(N/C(=N/CCCCCCOc2ccc(Cl)cc2)NC#N)cc1
30 | 0.501 | 1.2 | 0.083 | > 240 | COCCOCCOCCOC(=O)OC[n+]1ccc(N/C(=N/CCCCCCOc2ccc(Cl)cc2)NC#N)cc1.[Cl-]
> 240 | 15.8 | > 1.2 | 0.25 | > 240 | Cl.N#CN/C(=N\CCCCCCOc1ccc(Cl)cc1)Nc1cc[n+](COC(=O)NCCCN)cc1.[Cl-]
